According to PubChem BioAssay (NCI):
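Five concentrations, 48 hours, 96-well plates. TGI: total growth inhibition.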

What was measured:
Experiment in all cases: NCI-60 cell line screen, 48 h
HCC-2998 colon = system: HCC-2998 colon
HS 578T breast = system: HS 578T breast
KM12 colon = system: KM12 colon
MCF7 breast = system: MCF7 breast
MDA-MB-231 breast = system: MDA-MB-231 breast
OVCAR-3 ovarian = system: OVCAR-3 ovarian
SN12C renal = system: SN12C renal
SNB-19 CNS = system: SNB-19 CNS
SR leukemia = system: SR leukemia
T-47D breast = system: T-47D breast

SMILES	TGI (HCC-2998 colon) [µM]	TGI (HS 578T breast) [µM]	TGI (KM12 colon) [µM]	TGI (MCF7 breast) [µM]	TGI (MDA-MB-231 breast) [µM]	TGI (OVCAR-3 ovarian) [µM]	TGI (SN12C renal) [µM]	TGI (SNB-19 CNS) [µM]	TGI (SR leukemia) [µM]	TGI (T-47D breast) [µM]
CC(C)NC(=O)OCc1c(COC(=O)NC(C)C)c(-c2cc[n+](COC(=O)C3CCCCC3)cc2)n2c1CCC2	> 100	> 100	> 100	> 100	> 100	> 100	> 100	> 100	> 100	> 100
O=C(NCCCCCN1CCC2(CCCCC2)CC1)C(C1CCCCC1)C1CCCCC1	2.57	9.59	13	5.37	10.8	8.97	9.67	12.5	4.17	8.43
O=S(=O)(O)c1cc(S(=O)(=O)O)c2c(N=Nc3ccc(N=Nc4ccccc4)cc3)c(O)ccc2c1	> 100	> 100	> 100	> 100	> 100	> 100	> 100	> 100	> 100	> 100
COCCN1C(=O)C2c3[nH]c4ccccc4c3C3CCC(C(C)(C)C)CC3C2C1=O (stereo not given)	42.9	38.8	38.9	43.3	36.9	33.8	32.9	44.6	27	38.5
